In ChEMBL document CHEMBL1201862, “PubChem BioAssay data set” (2004):
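Dose response: 5 concentrations. Exposure: 48 h. Format: 96-well plates. Endpoint: linear interpolation; highest concentration if not reached. GI50 is the concentration that inhibits growth by half.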 Active and inactive are the calls of the source. No stated cut-off is given here; in the data, active = GI50 up to about 1.1 µM and inactive = higher.

Experiments:
Test in all cases: NCI anticancer screen, dose series, 48 h
CAKI-1 = system: CAKI-1
SF-539 = system: SF-539
OVCAR-5 = system: OVCAR-5
DLD-1 = system: DLD-1
A549 = system: A549
COLO 205 = system: COLO 205
SW-620 = system: SW-620
MCF7 = system: MCF7
HCC 2998 = system: HCC 2998
SK-MEL-2 = system: SK-MEL-2
HCT-116 = system: HCT-116
HOP-92 = system: HOP-92
UACC-62 = system: UACC-62
NCI-H23 = system: NCI-H23
SN12C = system: SN12C
U-251 = system: U-251
SF-268 = system: SF-268
ACHN = system: ACHN
M14 = system: M14
SR = system: SR

Measured: GI50

C[C@H](N)C(=O)N[C@@H]1[C@H]2C(=C(O)C[C@@H](O)[C@@H]2O)C(=O)O[C@@H]1C
inactive: CAKI-1 > 100 µM | SF-539 > 100 µM | OVCAR-5 > 100 µM | DLD-1 > 100 µM | A549 > 100 µM | COLO 205 > 100 µM | SW-620 > 100 µM | MCF7 > 100 µM | HCC 2998 > 100 µM | SK-MEL-2 > 100 µM | HCT-116 > 100 µM | HOP-92 > 100 µM | UACC-62 > 100 µM | NCI-H23 > 100 µM | SN12C > 100 µM | U-251 > 100 µM | SF-268 > 100 µM

CC1CC2C3CCC4=CC(=O)C=CC4(C)C3(F)C(O)CC2(C)C1(O)C(=O)COP(=O)(O)O (stereo unspecified)
inactive: CAKI-1 > 100 µM | ACHN > 100 µM | SF-539 > 100 µM | OVCAR-5 > 100 µM | DLD-1 > 100 µM | A549 > 100 µM | COLO 205 > 100 µM | SW-620 > 100 µM | MCF7 > 100 µM | HCC 2998 > 100 µM | SK-MEL-2 > 100 µM | HCT-116 > 33.7 µM | HOP-92 > 100 µM | UACC-62 > 100 µM | M14 > 100 µM | SR 46.6 µM | NCI-H23 > 100 µM | U-251 > 100 µM | SF-268 > 100 µM
